Measurements reported in ChEMBL document CHEMBL5634161, “Discovery of benzamide-based PI3K/HDAC dual inhibitors with marked pro-apoptosis activity in lymphoma cells” (Eur J Med Chem, 2023).
pIC50: −log10 of the molar value. Activity calls are given as the source filed them. The calls are words filed in the database; no cut-off is given here.

Assays:
CYP3A4 = CYP3A4 (Homo sapiens, UniProt P08684); test: Inhibition of CYP3A4 in human liver microsomes using bufuralol as substrate at 10 uM in presence of NADPH regenerating system by LC-MS/MS analysis relative to control; assay type: ADME, Microsome; settings: probe bufuralol
[1] = Stability in human liver microsomes assessed as compound remaining at […] preincubated for 5 mins followed by NADPH addition and measured after 45 mins by LC-MS/MS analysis; assay type: ADME, Microsome; settings: time 50 min, read-out: Stability
[2] = Stability in human liver microsomes assessed as compound remaining at […] preincubated for 5 mins followed by NADPH addition and measured immediately by LC-MS/MS analysis; assay type: ADME, Microsome; settings: read-out: Stability
CYP2C19 = CYP2C19 (Homo sapiens, UniProt P33261); test: Inhibition of CYP2C19 in human liver microsomes using S-mephenytoin as substrate at 10 uM in presence of NADPH regenerating system by LC-MS/MS analysis relative to control; assay type: ADME, Microsome; settings: probe S-mephenytoin
JeKo-1 [3] = test: Inhibition of class 1 HDAC in human JeKo-1 cells assessed as increase in histone H3 acetylation incubated for 24 hrs by Western blot analysis; assay type: cell-based; settings: dose 0.25-1 µM
JeKo-1 [4] = test: Induction of apoptosis in human JeKo-1 cells assessed as viable cells at 0.5 uM incubated for 48 hrs by Annexin-V/FITC and PI staining based flow cytometric analysis (reference value: 94.1%); assay type: functional; settings: read-out: Activity
[5] = Clearance in ICR mouse at 1 mg/kg, iv measured after 24 hrs by LC-MS/MS analysis; assay type: ADME, organism-based; settings: in vivo
JeKo-1 [6] = test: Induction of apoptosis in human JeKo-1 cells assessed as early apoptotic cells at 1 uM incubated for 48 hrs by Annexin-V/FITC and PI staining based flow cytometric analysis (reference value: […]); assay type: functional
JeKo-1 [7] = test: Induction of apoptosis in human JeKo-1 cells assessed as necrotic cells at 0.5 uM incubated for 48 hrs by Annexin-V/FITC and PI staining based flow cytometric analysis (reference value: 1.05%); assay type: functional
[8] = Inhibition of PI3K/AKT/mTOR signaling in human JeKo-1 cells assessed as decrease in AKT phosphorylation at S473 residue at 0.25 uM incubated for 24 hrs by Western blot analysis; assay type: cell-based
Histone deacetylase 11 = Histone deacetylase 11 (Homo sapiens, UniProt Q96DB2); test: Inhibition of HDAC11 (unknown origin) using Boc-Lys(acetyl)-AMC as substrate preincubated for 1 hrs followed by substrate addition and measured after 2 hrs by spectrophotometer based fluorometric assay
JeKo-1 [9] = test: Induction of apoptosis in human JeKo-1 cells assessed as viable cells at 1 uM incubated for 48 hrs by Annexin-V/FITC and PI staining based flow cytometric analysis (reference value: 94.1%); assay type: functional; settings: read-out: Activity
CYP2C9 = CYP2C9 (Homo sapiens, UniProt P11712); test: Inhibition of CYP2C9 in human liver microsomes using diclofenac as substrate at 10 uM in presence of NADPH regenerating system by LC-MS/MS analysis relative to control; assay type: ADME, Microsome; settings: probe diclofenac
[10] = Stability in human liver microsomes assessed as half-life at […] preincubated for 5 mins followed by NADPH addition and measured upto 45 mins by LC-MS/MS analysis; assay type: ADME, Microsome; settings: time < 50 min
JeKo-1 [11] = test: Potency index, ratio of CI994 IC50 to test compound IC50 for antiproliferative activity against human JeKo-1 cells incubated for 48 hrs by resazurin based fluorescence microplate reader analysis; assay type: functional
[12] = AUC (0 to t) in ICR mouse at 1 mg/kg, iv measured after 24 hrs by LC-MS/MS analysis; assay type: ADME, organism-based; settings: in vivo
[13] = target: Protein deacetylase HDAC6 (Homo sapiens, UniProt Q9UBN7); test: Inhibition of HDAC6 (unknown origin) using Boc-Lys(acetyl)-AMC as substrate preincubated for 1 hrs followed by substrate addition and measured after 2 hrs by spectrophotometer based fluorometric assay
JeKo-1 [14] = test: Induction of apoptosis in human JeKo-1 cells assessed as late apoptotic cells at 1 uM incubated for 48 hrs by Annexin-V/FITC and PI staining based flow cytometric analysis (reference value: 3.66%); assay type: functional
JeKo-1 [15] = test: Induction of apoptosis in human JeKo-1 cells assessed as early apoptotic cells at 0.25 uM incubated for 48 hrs by Annexin-V/FITC and PI staining based flow cytometric analysis (reference value: […]); assay type: functional
[16] = Stability in rat liver microsomes assessed as compound remaining at […] preincubated for 5 mins followed by NADPH addition and measured after 30 mins by LC-MS/MS analysis; assay type: ADME, Microsome; settings: time 35 min, read-out: Stability
[17] = Stability in mouse liver microsomes assessed as compound remaining at […] preincubated for 5 mins followed by NADPH addition and measured after 45 mins by LC-MS/MS analysis; assay type: ADME, Microsome; settings: time 50 min, read-out: Stability
JeKo-1 [18] = test: Antiproliferative activity against human JeKo-1 cells incubated for 48 hrs by resazurin dye based fluorescence micro plate reader analysis; assay type: functional, cell-based; settings: JeKo-1, 48 h
Histone deacetylase 1 = Histone deacetylase 1 (Homo sapiens, UniProt Q13547); test: Inhibition of HDAC1 (unknown origin) using Boc-Lys(acetyl)-AMC as substrate preincubated for 1 hrs followed by substrate addition and measured after 2 hrs by spectrophotometer based fluorometric assay
JeKo-1 [19] = test: Effect on total AKT protein level in human JeKo-1 cells at 0.25 uM incubated for 24 hrs by Western blot analysis; assay type: functional, cell-based
JeKo-1 [20] = test: Potency index, ratio of 4-(3-(4-(4-methoxy-6-morpholino-1,3,5-triazin-2-yl)phenyl)urea)-N-(2-ethylamino)ethylbenzamide IC50 to test compound IC50 for antiproliferative activity against human JeKo-1 cells incubated for 48 hrs by resazurin based fluorescence microplate reader analysis; assay type: functional
JeKo-1 [21] = test: Induction of apoptosis in human JeKo-1 cells assessed as necrotic cells at 1 uM incubated for 48 hrs by Annexin-V/FITC and PI staining based flow cytometric analysis (reference value: 1.05%); assay type: functional
[22] = Stability in human liver microsomes assessed as compound remaining at […] preincubated for 5 mins followed by NADPH addition and measured after 30 mins by LC-MS/MS analysis; assay type: ADME, Microsome; settings: time 35 min, read-out: Stability
[23] = Stability in rat liver microsomes assessed as compound remaining at 0.5 mM preincubated for 5 mins followed by NADPH addition and measured immediately by LC-MS/MS analysis; assay type: ADME, Microsome; settings: read-out: Stability
[24] = Stability in human liver microsomes assessed as compound remaining at […] preincubated for 5 mins followed by NADPH addition and measured after 15 mins by LC-MS/MS analysis; assay type: ADME, Microsome; settings: time 20 min, read-out: Stability
Histone deacetylase 4 = Histone deacetylase 4 (Homo sapiens, UniProt P56524); test: Inhibition of HDAC4 (unknown origin) using Boc-Lys(acetyl)-AMC as substrate preincubated for 1 hrs followed by substrate addition and measured after 2 hrs by spectrophotometer based fluorometric assay
HL-60 = test: Antiproliferative activity against human HL-60 cells incubated for 48 hrs by resazurin dye based fluorescence micro plate reader analysis; assay type: functional, cell-based; settings: HL-60, 48 h
JeKo-1 [25] = test: Induction of apoptosis in human JeKo-1 cells assessed as necrotic cells at 0.25 uM incubated for 48 hrs by Annexin-V/FITC and PI staining based flow cytometric analysis (reference value: 1.05%); assay type: functional

Sequence of CYP2C9 (P11712 whole entry): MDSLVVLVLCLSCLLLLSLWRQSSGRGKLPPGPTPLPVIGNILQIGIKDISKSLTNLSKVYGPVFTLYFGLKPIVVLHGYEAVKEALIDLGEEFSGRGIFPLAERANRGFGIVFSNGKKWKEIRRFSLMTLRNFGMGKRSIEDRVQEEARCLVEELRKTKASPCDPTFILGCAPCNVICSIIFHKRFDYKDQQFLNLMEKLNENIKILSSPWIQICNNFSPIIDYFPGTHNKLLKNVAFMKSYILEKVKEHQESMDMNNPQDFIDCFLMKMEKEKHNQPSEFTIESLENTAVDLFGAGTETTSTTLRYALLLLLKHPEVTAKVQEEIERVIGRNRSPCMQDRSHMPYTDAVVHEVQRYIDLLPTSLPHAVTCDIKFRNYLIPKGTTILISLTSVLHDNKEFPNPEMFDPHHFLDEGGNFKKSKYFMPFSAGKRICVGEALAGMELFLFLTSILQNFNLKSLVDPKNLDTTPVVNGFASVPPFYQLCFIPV
Sequence of Protein deacetylase HDAC6 (Q9UBN7 whole entry): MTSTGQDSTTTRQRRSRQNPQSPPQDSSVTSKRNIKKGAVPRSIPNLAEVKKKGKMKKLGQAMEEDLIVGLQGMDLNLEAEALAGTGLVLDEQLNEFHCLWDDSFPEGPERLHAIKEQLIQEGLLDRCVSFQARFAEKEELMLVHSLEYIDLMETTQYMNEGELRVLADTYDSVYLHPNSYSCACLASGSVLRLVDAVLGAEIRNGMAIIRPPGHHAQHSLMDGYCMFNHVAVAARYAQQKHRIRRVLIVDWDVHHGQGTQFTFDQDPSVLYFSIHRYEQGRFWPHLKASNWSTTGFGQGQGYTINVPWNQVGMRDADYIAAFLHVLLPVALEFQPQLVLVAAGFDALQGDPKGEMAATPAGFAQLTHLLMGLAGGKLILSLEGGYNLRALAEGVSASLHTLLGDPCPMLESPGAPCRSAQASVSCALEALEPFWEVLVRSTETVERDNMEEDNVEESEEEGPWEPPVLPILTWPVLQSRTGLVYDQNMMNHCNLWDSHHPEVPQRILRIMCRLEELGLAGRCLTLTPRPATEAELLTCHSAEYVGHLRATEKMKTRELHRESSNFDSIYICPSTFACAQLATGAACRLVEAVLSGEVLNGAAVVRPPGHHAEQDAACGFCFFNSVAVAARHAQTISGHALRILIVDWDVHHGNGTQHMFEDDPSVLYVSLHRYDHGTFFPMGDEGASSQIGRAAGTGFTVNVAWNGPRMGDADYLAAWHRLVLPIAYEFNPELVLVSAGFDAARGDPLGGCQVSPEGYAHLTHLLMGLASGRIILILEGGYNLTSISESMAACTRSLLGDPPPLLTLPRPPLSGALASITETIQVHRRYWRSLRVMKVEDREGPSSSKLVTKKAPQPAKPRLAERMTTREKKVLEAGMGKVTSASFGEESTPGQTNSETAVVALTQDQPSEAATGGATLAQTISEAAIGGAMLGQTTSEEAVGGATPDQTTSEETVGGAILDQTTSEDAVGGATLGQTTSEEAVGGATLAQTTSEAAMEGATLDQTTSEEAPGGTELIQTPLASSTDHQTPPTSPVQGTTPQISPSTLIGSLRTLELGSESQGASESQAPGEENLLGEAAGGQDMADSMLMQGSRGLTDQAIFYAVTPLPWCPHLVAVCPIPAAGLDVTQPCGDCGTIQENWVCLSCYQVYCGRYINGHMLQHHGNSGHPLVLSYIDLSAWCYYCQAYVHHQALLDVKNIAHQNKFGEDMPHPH
Sequence of Histone deacetylase 11 (Q96DB2 whole entry): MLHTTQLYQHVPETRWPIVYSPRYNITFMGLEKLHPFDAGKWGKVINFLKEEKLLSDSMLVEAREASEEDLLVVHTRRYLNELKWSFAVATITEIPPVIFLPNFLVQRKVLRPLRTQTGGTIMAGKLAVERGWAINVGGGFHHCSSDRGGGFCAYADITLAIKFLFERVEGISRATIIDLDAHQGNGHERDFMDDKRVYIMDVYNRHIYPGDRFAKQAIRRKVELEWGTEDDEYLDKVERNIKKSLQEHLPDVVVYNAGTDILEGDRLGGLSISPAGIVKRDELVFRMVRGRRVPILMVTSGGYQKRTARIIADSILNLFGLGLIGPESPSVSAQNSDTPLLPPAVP
Sequence of Histone deacetylase 1 (Q13547 whole entry): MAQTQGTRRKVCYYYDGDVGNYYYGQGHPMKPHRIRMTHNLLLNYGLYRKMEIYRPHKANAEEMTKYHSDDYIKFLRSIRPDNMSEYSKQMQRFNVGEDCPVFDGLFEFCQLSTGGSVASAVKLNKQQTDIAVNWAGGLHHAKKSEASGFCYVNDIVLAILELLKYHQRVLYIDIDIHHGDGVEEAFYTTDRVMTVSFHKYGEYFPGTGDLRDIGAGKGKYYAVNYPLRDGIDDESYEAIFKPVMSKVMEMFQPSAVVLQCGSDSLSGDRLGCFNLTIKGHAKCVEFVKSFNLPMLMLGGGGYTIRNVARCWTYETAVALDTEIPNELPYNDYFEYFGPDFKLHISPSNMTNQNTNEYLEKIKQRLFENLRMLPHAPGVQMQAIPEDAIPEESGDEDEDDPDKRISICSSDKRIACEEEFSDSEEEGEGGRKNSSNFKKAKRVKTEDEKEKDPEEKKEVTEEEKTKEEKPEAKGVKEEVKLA
Sequence of CYP2C19 (P33261 whole entry): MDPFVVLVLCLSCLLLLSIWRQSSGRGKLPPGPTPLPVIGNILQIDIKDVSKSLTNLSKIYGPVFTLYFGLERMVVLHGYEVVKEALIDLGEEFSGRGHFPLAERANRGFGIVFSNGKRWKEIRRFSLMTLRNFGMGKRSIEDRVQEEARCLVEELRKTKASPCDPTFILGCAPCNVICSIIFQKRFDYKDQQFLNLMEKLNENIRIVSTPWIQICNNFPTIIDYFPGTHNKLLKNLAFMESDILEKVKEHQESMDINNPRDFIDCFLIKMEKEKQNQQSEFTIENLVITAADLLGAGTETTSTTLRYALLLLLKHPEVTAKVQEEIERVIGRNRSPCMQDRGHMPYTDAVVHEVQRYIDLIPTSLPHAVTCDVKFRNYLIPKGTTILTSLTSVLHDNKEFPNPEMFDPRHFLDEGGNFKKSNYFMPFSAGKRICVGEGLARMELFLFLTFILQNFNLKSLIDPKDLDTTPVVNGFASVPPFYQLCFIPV
Sequence of CYP3A4 (P08684 whole entry): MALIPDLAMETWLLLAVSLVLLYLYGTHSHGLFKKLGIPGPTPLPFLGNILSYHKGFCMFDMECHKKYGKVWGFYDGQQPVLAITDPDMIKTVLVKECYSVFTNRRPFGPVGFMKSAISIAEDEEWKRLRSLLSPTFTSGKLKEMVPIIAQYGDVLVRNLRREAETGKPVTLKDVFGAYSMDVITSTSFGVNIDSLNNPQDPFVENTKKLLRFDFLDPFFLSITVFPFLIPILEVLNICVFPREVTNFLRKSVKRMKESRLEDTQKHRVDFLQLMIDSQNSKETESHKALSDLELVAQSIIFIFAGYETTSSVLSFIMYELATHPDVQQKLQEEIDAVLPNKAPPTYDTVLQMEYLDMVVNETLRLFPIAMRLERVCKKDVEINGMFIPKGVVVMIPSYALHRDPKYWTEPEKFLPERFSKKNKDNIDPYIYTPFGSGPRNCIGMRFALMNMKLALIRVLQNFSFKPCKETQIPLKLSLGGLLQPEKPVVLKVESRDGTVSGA
Sequence of Histone deacetylase 4 (P56524 whole entry): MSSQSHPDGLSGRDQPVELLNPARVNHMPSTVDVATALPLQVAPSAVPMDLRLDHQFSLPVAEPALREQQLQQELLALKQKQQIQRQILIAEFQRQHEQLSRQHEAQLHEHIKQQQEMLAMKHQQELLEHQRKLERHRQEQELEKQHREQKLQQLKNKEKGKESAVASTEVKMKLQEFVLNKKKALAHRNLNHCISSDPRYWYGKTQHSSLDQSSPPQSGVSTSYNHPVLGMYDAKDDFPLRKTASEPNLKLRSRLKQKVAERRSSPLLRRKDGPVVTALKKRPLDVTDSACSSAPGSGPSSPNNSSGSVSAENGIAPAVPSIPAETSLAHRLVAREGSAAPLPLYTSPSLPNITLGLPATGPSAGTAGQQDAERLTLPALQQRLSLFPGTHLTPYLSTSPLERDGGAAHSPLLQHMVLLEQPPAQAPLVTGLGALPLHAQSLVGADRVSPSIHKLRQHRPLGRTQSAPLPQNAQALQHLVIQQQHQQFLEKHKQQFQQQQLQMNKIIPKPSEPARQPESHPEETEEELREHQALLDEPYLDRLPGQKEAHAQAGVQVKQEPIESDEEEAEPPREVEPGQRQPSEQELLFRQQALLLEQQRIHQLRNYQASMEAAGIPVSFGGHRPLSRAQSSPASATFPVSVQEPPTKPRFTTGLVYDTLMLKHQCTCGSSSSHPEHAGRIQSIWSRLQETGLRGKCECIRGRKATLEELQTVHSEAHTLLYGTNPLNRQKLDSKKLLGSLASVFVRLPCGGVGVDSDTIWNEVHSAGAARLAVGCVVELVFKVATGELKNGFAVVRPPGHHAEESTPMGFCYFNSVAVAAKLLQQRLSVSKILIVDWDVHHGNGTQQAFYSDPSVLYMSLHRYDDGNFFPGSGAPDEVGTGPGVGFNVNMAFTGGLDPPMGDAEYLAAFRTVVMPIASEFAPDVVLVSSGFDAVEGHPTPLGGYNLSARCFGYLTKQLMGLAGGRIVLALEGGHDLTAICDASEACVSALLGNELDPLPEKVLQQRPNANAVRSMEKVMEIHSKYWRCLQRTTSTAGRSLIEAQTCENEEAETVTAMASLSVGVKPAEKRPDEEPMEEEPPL

- inhibition at 10 µM (CYP3A4): 32.5%
- remaining at 0.75 h [1]: 35.8%
- remaining at 0 min [2]: 100%
- inhibition at 10 µM (CYP2C19): 14%
- clearance [5]: 6.02 mL/min/kg
- pIC50 (Histone deacetylase 11): < 5.00
- inhibition at 10 µM (CYP2C9): 37.4%
- half-life [10]: 30.9 min
- AUC(0-t) at 24 h [12]: 2700 ng·h/mL
- pIC50 [13]: < 5.00
- remaining at 0.5 h [16]: 46.9%
- remaining at 0.75 h [17]: 32.8%
- pIC50 (Histone deacetylase 1): 6.51
- remaining at 0.5 h [22]: 46.9%
- remaining at 0 min [23]: 100%
- remaining at 0.25 h [24]: 62.6%
- pIC50 (Histone deacetylase 4): < 5.00
- pIC50 (HL-60): 6.05
Structure (SMILES): COc1nc(-c2ccc(NC(=O)Nc3ccc(C(=O)NCCCCCC(=O)Nc4ccccc4N)cc3)cc2)nc(N2CCOCC2)n1
- inhibition (JeKo-1 [3]): Dose-Dependent Effect
- viability at 0.5 µM (JeKo-1 [4]): 48.8%
- Activity (JeKo-1 [6]): 26.1%
- Activity (JeKo-1 [7]): 0.49%
- inhibition [8]: Active
- viability at 1 µM (JeKo-1 [9]): 3.29%
- Ratio IC50 (JeKo-1 [11]): 2
- Activity (JeKo-1 [14]): 70.4%
- Activity (JeKo-1 [15]): 5.73%
- pIC50 (JeKo-1 [18]): 6.30
- Activity (JeKo-1 [19]): inactive
- Ratio IC50 (JeKo-1 [20]): 2
- Activity (JeKo-1 [21]): 0.17%
- Activity (JeKo-1 [25]): 0.85%
